Experiments:
Pneumocystis carinii = test: Experimental rat model of Pneumocystis carinii pneumonia (PCP); type: in vivo; conditions: for Cysts/hpf in lung at necropsy: high power field 400×
Description: Rats were treated in groups of four. […] Doses in all trials were calculated as above.
Treatment regimens were tested in the standard animal model of PCP (6). To induce infection with P. carinii, rats were immunosuppresed with steriods for twelve weeks while restricted to a low-protein diet and tetracycline. Administration of a test regimen was initiated early during the induction period to determine its effectiveness in preventing PCP and was initiated late during the induction period to determine its effectiveness in treating PCP. Male Sprague-Dawley rats weighing 175-225 g were used. Rats were given twice weekly subcutaneous injections of 75 mg/kg of cortisone acetate, were maintained on an 8% protein diet, and were treated with tetracycline via their drinking water. Rats were sacrificed after twelve weeks of this regimen and the extent of infection was judged by counting cysts in toluidine blue 0-stained smears of lung homogenates. Lung homogenates were prepared by combining a weighed portion of tissue with nine ml of 0.1N HCl per g.

[1] = system: African trypanosomiasis (sleeping sickness); conditions: cited from earlier work
[2] = Trial I, 0.4 mg/kg aerosol weekly, wk 5-11, mean ± standard deviation
[3] = Trial I, 4.0 mg/kg IM weekly, wk 5-11, mean ± standard deviation
[4] = Trial I, prophylactic aerosol 0.4 mg/kg weekly, weeks 5-11
[5] = Trial II, 0.2 mg/kg aerosol weekly, wk 7-11, mean ± standard deviation
[6] = Trial II, 0.4 mg/kg aerosol daily, 4×, wk 10, mean ± standard deviation
[7] = Trial III, 0.4 mg/kg aerosol biweekly, wks 7, 9, 11, mean ± standard deviation
[8] = Trial III, 0.4 mg/kg aerosol daily, 4×, wk 12, mean ± standard deviation
[9] = Trial III, 0.8 mg/kg aerosol monthly, wks 4, 8, mean ± standard deviation

N=C(N)c1ccc(OCCCCCOc2ccc(C(=N)N)cc2)cc1 [pentamidine, Pentamidine isethionate]
Cysts/hpf in lung at necropsy (Pneumocystis carinii; Trial I, 0.4 mg/kg aerosol weekly, wk 5-11): < 1 Cysts/hpf | Lung weight at necropsy (Pneumocystis carinii; [2]): 1.94 ± 0.21 g | Pent in lung at necropsy (Pneumocystis carinii; [2]): 29.7 ± 7.1 µg/g | Cysts/hpf in lung at necropsy (Pneumocystis carinii; [3]): 102 ± 88 Cysts/hpf | Lung weight at necropsy (Pneumocystis carinii; [3]): 3.28 ± 1.15 g | Pent in lung at necropsy (Pneumocystis carinii; [3]): 4.5 ± 1.7 µg/g | effectiveness in prevention of PCP, aerosol versus IM (Pneumocystis carinii; Trial I, aerosol 0.4 mg/kg vs IM 4.0 mg/kg weekly): more effective in prevention of PCP than tenfold higher doses of IM pentamidine | cysts of P. carinii in stained smears of lung homogenates (Pneumocystis carinii; [4]): rare or absent | lung weight and appearance (Pneumocystis carinii; [4]): normal in weight and appearance | severity of infection versus control animals (Pneumocystis carinii; [4]): more than a thousandfold less severe infection than was seen in control animals | Lung weight at necropsy (Pneumocystis carinii; [5]): 1.43 ± 0.31 g | Pent in lung at necropsy (Pneumocystis carinii; [5]): 15.2 ± 5.0 µg/g | Cysts/hpf in lung at necropsy (Pneumocystis carinii; [6]): 20.8 ± 30.8 Cysts/hpf | Lung weight at necropsy (Pneumocystis carinii; [6]): 1.20 ± 0.20 g | Pent in lung at necropsy (Pneumocystis carinii; [6]): 15.8 ± 10.9 µg/g | effectiveness of prophylactic regimen (Pneumocystis carinii; Trial II, aerosol weekly, weeks 7-11, 0.1 mg/kg): effective | Cysts/hpf in lung at necropsy (Pneumocystis carinii; [7]): 48 ± 109 Cysts/hpf | Lung weight at necropsy (Pneumocystis carinii; [7]): 1.41 ± 0.64 g | Pent in lung at necropsy (Pneumocystis carinii; [7]): 13.4 ± 7.9 µg/g | Cysts/hpf in lung at necropsy (Pneumocystis carinii; [8]): 188 ± 255 Cysts/hpf | Lung weight at necropsy (Pneumocystis carinii; [8]): 2.08 ± 0.68 g | Pent in lung at necropsy (Pneumocystis carinii; [8]): 8.3 ± 6.4 µg/g | Cysts/hpf in lung at necropsy (Pneumocystis carinii; [9]): 4.6 ± 4.2 Cysts/hpf | Lung weight at necropsy (Pneumocystis carinii; [9]): 1.26 ± 0.26 g | Pent in lung at necropsy (Pneumocystis carinii; [9]): 16.1 ± 3.3 µg/g | effectiveness of prophylactic regimens (Pneumocystis carinii; Trial III, aerosol 0.8 mg/kg monthly and 0.4 mg/kg biweekly): effective | prevention of PCP in the animal model (Pneumocystis carinii; low and infrequent aerosol treatment): highly effective in prevention of PCP | retention of aerosol pentamidine (Pneumocystis carinii; normal animals and early prophylactic doses vs animals treated with severe pneumonia): greater in normal animals and in animals that received early prophylactic doses than it was in animals who were treated when they had severe pneumonia | effectiveness of therapeutic regimen (Pneumocystis carinii; rat, in vivo): partially effective | number of cysts versus lung pentamidine concentration (Pneumocystis carinii; within the prophylaxis and treatment groups): the lowest number of cysts were found in animals with the highest concentrations of pentamidine in the lung | resistance to infection after a single IM dose ([1]; human volunteers, weekly bites from infected tse-tse flies): resisted infection for one year or more | chemoprophylaxis of African trypanosomiasis ([1]; human): effective in the chemoprophylaxis of African trypanosomiasis | elimination of infection in endemic areas ([1]; twice-yearly IV or IM doses, Africa): eliminated the infection in endemic areas

Reference: patent US5262157A (priority 1988, dated 1993)
